# Measured values reported in patent US20080269306A1, “Antidepressant Medicament Comprising Idazoxan and a Selective Serotonin Reuptake Inhibitor” (ALPHA 2 PHARMACEUTICA AB, priority 2004, published 2008).
# Legend:
# [1] = test system: noradrenaline output in the medial prefrontal cortex; test: Microdialysis: noradrenaline output in the medial prefrontal cortex of freely moving rats; format: in vivo, rat; settings: for effect on noradrenaline output in the medial prefrontal cortex: citalopram alone, or low dose of Idazoxan added to citalopram; for NORADRENALINE Medial Prefrontal Cortex, mean values: n = 5
# Method: (§1) Adult male BK1:WR (Wistar) rats weighing 230-390 g were used in all experiments. Animals arrived at least five days prior to experimental use and were housed (4 per cage [Makrolon IV]) in the animal facility under standard laboratory conditions with a 12 h light/dark cycle with lights on at 6.00 a.m. All experiments were performed between 8.00 a.m. and 6.00 p.m. Food and water were available ad lib. All experiments were approved by, and conducted in accordance with, the local Animal Ethics Committee (Stockholms Norra och Södra Försöksdjursetiska Kommittéer) (permits no. N216/00, N11/00). The probe implantation and dialysis procedure, as well as the biochemical analyses, were similar to those previously described (Hertel et al 1996, […] et al 1999). Anesthetized male BKI:WR (Wistar) rats (B&K Universal, Sollentuna, Sweden; sodium pentobarbital, 60 mg/kg, intraperitoneal; i.p.) were implanted with dialysis probes in the medial prefrontal cortex (mPFC) [AP: +2.6; ML: -0.6; DV: -5.2], relative to bregma and dural surface (Paxinos and Watson 1998). Dialysis occurred through a semipermeable membrane (AN69 Hospal) with an active surface length of 4 mm. Dialysis experiments were conducted approximately 48 h after surgery in freely moving rats. The dialysis probe was perfused with a physiological perfusion solution (147 mM sodium chloride, 3.0 mM potassium chloride, 1.3 mM calcium chloride, 1.0 mM magnesium chloride, and 1.0 mM sodium phosphate, pH 7.4) at a rate of 2.5 μl/min set by a microinfusion pump (Harvard Apparatus, Holliston, Mass.). On-line quantification of noradrenaline (NA) or dopamine (DA) in the dialysate was accomplished by high pressure liquid chromatography coupled to electrochemical detection. The placement of the probe was later verified in slices stained with neutral red. 2-Way Anova (treatment×time) followed by Neuman-Keuls Post Hoc comparison test.
# [2] = test system: dopamine output in the medial prefrontal cortex; test: Microdialysis: dopamine output in the medial prefrontal cortex of freely moving rats; format: in vivo, rat; settings: for effect on dopamine output in the medial prefrontal cortex: citalopram alone, or low dose of Idazoxan added to citalopram; for DOPAMINE Medial Prefrontal Cortex, mean values: n = 5
# Method: as §1
# [3] = awake freely moving rat, low dose of Idazoxan added to citalopram
# [4] = TIME 30 min, after citalopram 5 mg/kg s.c., before saline/idazoxan
# [5] = TIME 60 min, after citalopram 5 mg/kg s.c., before saline/idazoxan
# [6] = TIME 90 min, after citalopram 5 mg/kg s.c., before saline/idazoxan
# [7] = TIME 120 min, citalopram 5 mg/kg s.c., then saline 1 ml/kg or idazoxan 1.5 mg/kg s.c. after the 90 min sample
# [8] = TIME 150 min, citalopram 5 mg/kg s.c., then saline 1 ml/kg or idazoxan 1.5 mg/kg s.c. after the 90 min sample
# [9] = TIME 180 min, citalopram 5 mg/kg s.c., then saline 1 ml/kg or idazoxan 1.5 mg/kg s.c. after the 90 min sample
# [10] = TIME 210 min, citalopram 5 mg/kg s.c., then saline 1 ml/kg or idazoxan 1.5 mg/kg s.c. after the 90 min sample
# [11] = TIME 240 min, citalopram 5 mg/kg s.c., then saline 1 ml/kg or idazoxan 1.5 mg/kg s.c. after the 90 min sample
# [12] = TIME 270 min, citalopram 5 mg/kg s.c., then saline 1 ml/kg or idazoxan 1.5 mg/kg s.c. after the 90 min sample
smiles,measurement,setting,value
"c1ccc2c(c1)OCC(C1=NCCN1)O2 (racemic) [Idazoxan, 2-(1,4-benzodioxan-2-yl)-2-imidazoline]",effect on noradrenaline output in the medial prefrontal cortex,[1]; awake freely moving rat,significant increase
same,duration of the increase in noradrenaline output,[1]; [3],approximately 2 hours
same,effect on dopamine output in the medial prefrontal cortex,[2]; awake freely moving rat,significant increase
same,duration of the increase in dopamine output,[2]; [3],approximately 2 hours
"CN(C)CCCC1(c2ccc(F)cc2)OCc2cc(C#N)ccc21 (stereo not drawn) [Citalopram + Saline, Citalopram]","NORADRENALINE Medial Prefrontal Cortex, mean values",[1]; [4],127.8 % Baseline
same,"NORADRENALINE Medial Prefrontal Cortex, mean values",[1]; [5],118.8 % Baseline
same,"NORADRENALINE Medial Prefrontal Cortex, mean values",[1]; [6],105.5 % Baseline
same,"NORADRENALINE Medial Prefrontal Cortex, mean values",[1]; [7],114.6 % Baseline
same,"NORADRENALINE Medial Prefrontal Cortex, mean values",[1]; [8],103.2 % Baseline
same,"NORADRENALINE Medial Prefrontal Cortex, mean values",[1]; [9],81.6 % Baseline
same,"NORADRENALINE Medial Prefrontal Cortex, mean values",[1]; [10],88.7 % Baseline
same,"NORADRENALINE Medial Prefrontal Cortex, mean values",[1]; [11],83.7 % Baseline
same,"NORADRENALINE Medial Prefrontal Cortex, mean values",[1]; [12],87.9 % Baseline
same,effect on noradrenaline output in the medial prefrontal cortex,[1]; awake freely moving rat,does not per se affect
same,"DOPAMINE Medial Prefrontal Cortex, mean values",[2]; [4],129.4 % Baseline
same,"DOPAMINE Medial Prefrontal Cortex, mean values",[2]; [5],104.5 % Baseline
same,"DOPAMINE Medial Prefrontal Cortex, mean values",[2]; [6],109.1 % Baseline
same,"DOPAMINE Medial Prefrontal Cortex, mean values",[2]; [7],127.8 % Baseline
same,"DOPAMINE Medial Prefrontal Cortex, mean values",[2]; [8],110.3 % Baseline
same,"DOPAMINE Medial Prefrontal Cortex, mean values",[2]; [9],97.7 % Baseline
same,"DOPAMINE Medial Prefrontal Cortex, mean values",[2]; [10],88.0 % Baseline
same,"DOPAMINE Medial Prefrontal Cortex, mean values",[2]; [11],104.5 % Baseline
same,"DOPAMINE Medial Prefrontal Cortex, mean values",[2]; [12],94.1 % Baseline
same,effect on dopamine output in the medial prefrontal cortex,[2]; awake freely moving rat,does not per se affect
